Results published in article PMC12131194, “Rational design, synthesis, and evaluation of novel polypharmacological compounds targeting NaV1.5, KV1.5, and K2P channels for atrial fibrillation” (The Journal of Biological Chemistry, 2025).

Experiments:
HEK-293 cells = experiment: MTT cytotoxicity assay; assay type: cell-based, human
Procedure: Another method used to assess cytotoxicity was the MTT assay on HEK293 cells. Initially, the cells were seeded at 3000 cells per well in a 96-well plate. After 24 h, they were exposed to increasing compound concentrations (1, 5, 10, 25, 50, 100, 250 and 500 μM) for 72 h. The cells cultured in a medium supplemented with 10% FBS were the positive control for cell viability. Each condition was evaluated triplicate in independent experiments. The ROCHE Cell Proliferation Kit I, MTT (Cat. no. 11465007001), was used, following the manufacturer's indications. Briefly, 10 μl of the labeling reagent was added, and the plates were incubated at 37 °C for 4 h. Subsequently, 100 μl of solubilization solution was added to each well, and the plates were incubated overnight in the dark. Finally, optical density was measured at 570 nm using a microplate reader (Thermo Fisher Scientific). The optical density measurements were used to calculate cell viability, normalizing the data to the positive control. Results were expressed as a percentage of cell viability relative to this control. The IC50 value was determined by fitting a dose-response curve using a nonlinear regression model with a four-parameter logistic equation. The experimental data analysis was performed using SigmaPlot version 12.0 (Systat Software Inc).

human erythrocytes = experiment: Hemolysis assay; assay type: cell-based; details: 0.2–400 μM, 2 hours, 37 °C
Procedure: To evaluate cytotoxicity, the hemolysis of the compounds with the best simultaneous blocking activity on the channels (6e, 6f, 7a, 7b and 7c) was considered, modifying the protocol of Chen 2018 ([112]). Thus, non-heparinized human blood was collected. Erythrocytes were washed three times in 1× PBS (phosphate-buffered saline: NaCl, 8 g/L; KCl, 0.2 g/L; Na2HPO4, 1.44 g/L; and KH2PO4, 0.24 g/L; pH 7.4) and then used to prepare a 3% red blood cell (RBC) suspension. The assay was performed in a 96-well polypropylene microplate.
The compounds were prepared from 200 mM stock solutions in DMSO. Subsequently, 1:2 serial dilutions were made in 1× PBS, with final concentrations from 400 to 0.2 μM to a final volume of 200 μl per well. The microplate was incubated for 2 h at 37 °C and centrifuged at 3400 rpm for 5 min. Finally, 100 μl of the supernatant was transferred and measured in a 96-well plate. Hemoglobin release was monitored by photometric analysis of the supernatant at 540 nm using an Epoch Microplate Spectrophotometer (BioTek Instruments, Inc. Winooski, Vermont 05404-0998).
A 3% RBC suspension treated with Tween 20 was used to obtain total lysis as a positive control. Other authors who performed hemolysis assays have also considered this and other detergents, such as Triton X-100 and Sodium Dodecyl Sulfate (SDS) as positive controls ([113], [114], [115], [116]). The negative control was a suspension of red blood cells with PBS. Each experiment was performed in triplicate at all concentrations used. The percentage of hemolysis was calculated with the following (Equation 1), where Ad: absorbance of the dilution, A0: absorbance of the blank (RBC suspension with PBS), and At: total absorbance (positive control).(1) %hemolysis=Ad−A0/At−A0x100

[1] = tested on: human atrial cardiomyocytes from patients with sinus rhythm (SR); experiment: Patch-clamp action potential recordings, atrial cardiomyocytes of sinus rhythm patients; assay type: cell-based
Procedure: A total of 10 patients with sinus rhythm (SR) (N = 5) or atrial fibrillation (AF) (N = 5) undergoing open heart surgery for coronary artery bypass grafting, heart valve replacement or heart transplantation were included in the study (Table S7). A written informed consent was given by all patients. The study protocol involving human tissue samples was approved by the responsible Ethics Committee of the Medical Faculty of Heidelberg University (Germany; S-017/2013) and was conducted in accordance with the 1964 Declaration of Helsinki.
The right atrial human tissue samples were transported in chilled Ca^2+-free solution (100 mM NaCl, 10 mM KCl, 1.2 mM KH2PO4, 5 mM MgSO4, 50 mM taurine, 5 mM 3-(N-morpholino)propanesulfonic acid (MOPS), 30 mM 2,3-butanedione monoxime and 20 mM glucose, pH 7.0 with NaOH). After dissection into small chunks, the samples were rinsed for 5 minutes with calcium-free Tyrode's solution, which was oxygenated with 100% O2 at 37 °C. The samples were then digested with collagenase type I (288 U/ml; Worthington) and protease type XXIV (5 mg/ml; Sigma-Aldrich, Steinheim, Germany) for 10 to 15 min, followed by an increase in calcium concentration to 0.2 mM. After an additional 35 min of agitation in protease-free solution, rod-shaped single cardiomyocytes were harvested. The suspension was centrifuged, and the cells were resuspended in storage (“Kraftbrühe”, KB) medium (20 mM KCl, 10 mM KH2PO4, 25 mM glucose, 40 mM D-Mannitol, 70 mM K glutamate, 10 mM β-hydroxybutyrate, 20 mM taurine, 10 mM ethylene glycol tetraacetic acid (EGTA), and 1% albumin) until usage in patch-clamp experiments.
Patch-clamp glass pipettes were fabricated from borosilicate glass (1B120F-4; World Precision Instruments). After back-filling with patch-clamp internal solution (134 mM K gluconate, 6 mM NaCl, 1.2 mM MgCl2, 1 mM Mg-ATP, 10 mM HEPES, pH 7.2 with KOH), tip resistances ranged from 5 to 10 MΩ. All experiments were carried out at room temperature under constant superfusion with patch-clamp extracellular solution containing 137 mM NaCl, 5.4 mM KCl, 1 mM MgCl2, 2 mM CaCl2, 10 mM HEPES, 10 mM glucose (pH 7.3 with NaOH). AP-recordings were performed in current clamp mode: The holding current was adjusted such that the cell’s resting membrane potential was approximately −70 mV at baseline. APs were induced by short (5 ms) depolarizing current pulses at a rate of 0.5 Hz. Data was not adjusted for potential differences caused by liquid junctions, and no leak subtraction was performed.
Data acquisition and analysis were performed using the pCLAMP10 software (Axon Instruments) and statistical analysis was done using Prism 8 (GraphPad Software). Data is presented as the mean ± standard error of the mean (SEM). Statistical comparisons were made using Dunnett’s post hoc test. A p value of < 0.05 was considered significant.

[2] = SR, 1, 6.25 and 12.5 μM, significant at 12.5 μM (p < 0.05)

CCCCN(CCCC)CC(=O)Nc1ccc(OC)cc1OC [Compound 6f, 2-(dibutylamine)-N-(2,4-dimethoxiphenyl)acetamide]
Concentrations with significant cytotoxic effects (MTT) (HEK-293 cells; 72 h): higher than 129 μM | IC50 (HEK-293 cells; Homo sapiens, HEK293, 72 h, read-out: IC50 cell viability (MTT)): 130 µM | Hemolytic effect (human erythrocytes): no hemolytic effect | Resting membrane potential (RMP) ([1]; SR, 6.25 μM): slight increase | APD50 vs baseline ([1]; SR, 1, 6.25 and 12.5 μM): only minor effects | APD90 vs baseline ([1]; SR, 1, 6.25 and 12.5 μM): only minor effects | Action potential amplitude (APA) vs baseline [1, 2]: concentration-dependent decrease | Maximal upstroke velocity (dV/dtmax) vs baseline [1, 2]: concentration-dependent decrease
